Results as given in paper PMC6271099, “Synthesis and Biological Evaluation of Novel 2-Methoxypyridylamino-Substituted Riminophenazine Derivatives as Antituberculosis Agents” (Molecules, 2014).
≈ marks a conversion by molar mass, not a printed value.

How the values were obtained:
M. tuberculosis H37Rv [1] = test: Microplate Alamar Blue Assay (MABA), in vitro antituberculosis activity (MIC); type: cell-based; details: Mycobacterium tuberculosis, 96-well plate
Vero cells = test: Cytotoxicity using Vero cells
[2] = Cytotoxicity using Vero cells; details: African green monkey, Vero cells
[3] = Preliminary multidose in vivo toxicity study in mice; details: oral 500 mg/kg once daily for 4 days; for Safety in mice (in words): 7-day observation; for Number of animals that survived/Total number of animals: followed by 7-day observation
M. tuberculosis H37Rv [4] = test: In vivo acute M. tuberculosis H37Rv infection assay in mice; set-up: species or system Mycobacterium tuberculosis; details: for logCFU/lung: BALB/c mice infected with M. tuberculosis H37Rv, 20 mg/kg, after 30 days of treatment, mean ± SD, n = 5
[5] = Preliminary mouse pharmacokinetic study; details: plasma, po, 20 mg/kg
[6] = as compared to CFZ
[7] = mouse model infected by M. tuberculosis H37Rv

Row | Compound | MIC (M. tuberculosis H37Rv [1]) | SI (selectivity index IC50/MIC) (Vero cells) | IC50 [2] | melting point | further results
1 | COc1ncccc1Nc1cc2nc3ccccc3n(-c3ccc(F)c(F)c3)c-2cc1=NC1CC1 [Compound 16, 5-(3,4-Difluorophenyl)-3-cyclopropylimino-2-(2-methoxy-3-pyridyl)amino-3,5-dihydrophenazine] | 0.014 µg/mL (≈ 0.0298 µM) | 1822 | 25.5 µg/mL (≈ 54.3 µM) | 213 to 214 °C | 
2 | COc1ncccc1Nc1cc2nc3ccccc3n(-c3ccc(Cl)c(Cl)c3)c-2cc1=NC1CC1 [Compound 22, 5-(3,4-Dichlorophenyl)-3-cyclopropylimino-2-(2-methoxy-3-pyridyl)amino-3,5-dihydrophenazine] | 0.025 µg/mL (≈ 0.0498 µM) |  | > 64 µg/mL |  | Safety in mice (in words) [3]: good safety; Number of animals that survived/Total number of animals [3]: 6/6; logCFU/lung (M. tuberculosis H37Rv [4]): 8.06 ± 0.13; Efficacy in mouse model (in words) (M. tuberculosis H37Rv [4]; [7]): failed to display efficacy
3 | COc1ncccc1Nc1cc2nc3ccccc3n(-c3ccc(Cl)c(Cl)c3)c-2cc1=NC1CCOCC1 [Compound 24, 5-(3,4-Dichlorophenyl)-3-(4-tetrahydropyranyl)imino-2-(2-methoxy-3-pyridyl)amino-3,5-dihydro-phenazine] | 0.08 µg/mL (≈ 0.146 µM) |  | > 64 µg/mL | 232 to 233 °C | 
4 | COc1ncccc1Nc1cc2nc3ccccc3n(-c3ccc(F)c(F)c3)c-2cc1=NC1CCCCC1 [Compound 18, 5-(3,4-Difluorophenyl)-3-cyclohexylimino-2-(2-methoxy-3-pyridyl)amino-3,5-dihydrophenazine] | 0.03 µg/mL (≈ 0.0586 µM) |  | > 64 µg/mL | 218 to 219 °C | 
5 | COc1ncccc1Nc1cc2nc3ccccc3n(-c3cccc(Cl)c3)c-2cc1=NC(C)C [Compound 10, 5-(3-Chlorophenyl)-3-isopropylimino-2-(2-methoxy-3-pyridyl)amino-3,5-dihydrophenazine] | 0.25 µg/mL (≈ 0.532 µM) | 20 | 5.1 µg/mL (≈ 10.9 µM) | 215 to 217 °C | 
6 | COc1ncccc1Nc1cc2nc3ccccc3n(-c3cccc(Cl)c3)c-2cc1=NC1CCC1 [Compound 12, 5-(3-Chlorophenyl)-3-cyclobutylimino-2-(2-methoxy-3-pyridyl)amino-3,5-dihydrophenazine] | 0.06 µg/mL (≈ 0.124 µM) |  | > 64 µg/mL | 205 to 208 °C | 
7 | CC(C)/N=c1\cc2n(-c3ccc(Cl)cc3)c3ccccc3nc-2cc1Nc1ccc(Cl)cc1 [CFZ, Clofazimine, reference compound] | 0.12 µg/mL (≈ 0.253 µM) | 572 | 68.6 µg/mL (≈ 145 µM) |  | AUC(0-t) [5]: 8220 ng·h/mL; Cmax [5]: 470 ng/mL; Tmax [5]: 2 h; half-life [5]: 27.1 h; logCFU/lung (M. tuberculosis H37Rv [4]): 4.29 ± 0.58
8 | COc1ncccc1Nc1cc2nc3ccccc3n(-c3cccc(Cl)c3)c-2cc1=NC1CC1 [Compound 11, 5-(3-Chlorophenyl)-3-cyclopropylimino-2-(2-methoxy-3-pyridyl)amino-3,5-dihydrophenazine] | 0.03 µg/mL (≈ 0.0641 µM) | 1696 | 50.9 µg/mL (≈ 109 µM) | 211 to 214 °C | 
9 | COc1ncccc1Nc1cc2nc3ccccc3n(-c3cccc(F)c3)c-2cc1=NC(C)C [Compound 8, 5-(3-Fluorophenyl)-3-isopropylimino-2-(2-methoxy-3-pyridyl)amino-3,5-dihydrophenazine] | 0.06 µg/mL (≈ 0.132 µM) | 44 | 2.65 µg/mL (≈ 5.84 µM) | 198 to 199 °C | 
10 | COc1ncccc1Nc1cc2nc3ccccc3n(-c3ccc(Cl)c(Cl)c3)c-2cc1=NC1CCC(OC)CC1 (centres unmarked) [Compound 25, 5-(3,4-Dichlorophenyl)-3-(4-methoxycyclohexyl)imino-2-(2-methoxy-3-pyridyl)amino-3,5-dihydro-phenazine] | 0.059 µg/mL (≈ 0.103 µM) |  | > 64 µg/mL | 215 to 217 °C | 
11 | COc1ncccc1Nc1cc2nc3ccccc3n(-c3ccc(Cl)c(Cl)c3)c-2cc1=NC(C)C [Compound 21, 5-(3,4-Dichlorophenyl)-3-isopropylimino-2-(2-methoxy-3-pyridyl)amino-3,5-dihydrophenazine] | 0.099 µg/mL (≈ 0.196 µM) |  | > 64 µg/mL | 245 to 247 °C | 
12 | COc1ncccc1Nc1cc2nc3ccccc3n(-c3ccc(F)c(F)c3)c-2cc1=NC1CCC1 [Compound 17, 5-(3,4-Difluorophenyl)-3-cyclobutylimino-2-(2-methoxy-3-pyridyl)amino-3,5-dihydrophenazine] | 0.04 µg/mL (≈ 0.0827 µM) |  | > 64 µg/mL | 200 to 201 °C | 
13 | COc1ncccc1Nc1cc2nc3ccccc3n(-c3ccc(F)c(F)c3)c-2cc1=NC(C)C [Compound 15, 5-(3,4-Difluorophenyl)-3-isopropylimino-2-(2-methoxy-3-pyridyl)amino-3,5-dihydrophenazine] | 0.066 µg/mL (≈ 0.14 µM) |  | > 64 µg/mL |  | AUC(0-t) [5]: 21200 ng·h/mL; Cmax [5]: 1840 ng/mL; Tmax [5]: 2 h; half-life [5]: 13.8 h; Safety in mice (in words) [3]: good safety; Number of animals that survived/Total number of animals [3]: 5/5; logCFU/lung (M. tuberculosis H37Rv [4]): 4.56 ± 0.38; Efficacy in mouse model (in words) (M. tuberculosis H37Rv [4]; [7]): excellent efficacy; Reduction of bacterial burden in the lungs as compared to the untreated control group (M. tuberculosis H37Rv [4]; mouse model infected by M. tuberculosis H37Rv, lungs): 3.8 logs colony forming units (CFU); Discoloration of the ears, internal organs and fat tissues of the mice [6]: less intense
14 | COc1ncccc1Nc1cc2nc3ccccc3n(-c3ccc(F)c(F)c3)c-2cc1=NC1CCC(OC)CC1 (centres unmarked) [Compound 20, 5-(3,4-Difluorophenyl)-3-(4-methoxycyclohexyl)imino-2-(2-methoxy-3-pyridyl)amino-3,5-dihydro-phenazine] | 0.056 µg/mL (≈ 0.103 µM) |  | > 64 µg/mL | 214 to 215 °C | 
15 | COc1ncccc1Nc1cc2nc3ccccc3n(-c3ccc(F)c(F)c3)c-2cc1=NC1CCOCC1 [Compound 19, 5-(3,4-Difluorophenyl)-3-(4-tetrahydropyranyl)imino-2-(2-methoxy-3-pyridyl)amino-3,5-dihydro-phenazine] | 0.067 µg/mL (≈ 0.13 µM) |  | > 64 µg/mL | 255 to 256 °C | 
16 | COc1ncccc1Nc1cc2nc3ccccc3n(-c3ccc(Cl)c(Cl)c3)c-2cc1=NC1CCC1 [Compound 23, 5-(3,4-Dichlorophenyl)-3-cyclobutylimino-2-(2-methoxy-3-pyridyl)amino-3,5-dihydrophenazine] | 0.06 µg/mL (≈ 0.116 µM) |  | > 64 µg/mL | 216 to 219 °C | 
17 | COc1ncccc1Nc1cc2nc3ccccc3n(-c3cccc(Cl)c3)c-2cc1=NC1CCOCC1 [Compound 14, 5-(3-Chlorophenyl)-3-(4-tetrahydropyranyl)imino-2-(2-methoxy-3-pyridyl)amino-3,5-dihydrophenazine] | 0.025 µg/mL (≈ 0.0488 µM) | 936 | 23.4 µg/mL (≈ 45.7 µM) | 203 to 206 °C | 
18 | COc1ncccc1Nc1cc2nc3ccccc3n(-c3cccc(Cl)c3)c-2cc1=NC1CCCCC1 [Compound 13, 5-(3-Chlorophenyl)-3-cyclohexylimino-2-(2-methoxy-3-pyridyl)amino-3,5-dihydrophenazine] | 0.057 µg/mL (≈ 0.112 µM) | 934 | 53.3 µg/mL (≈ 104 µM) | 197 to 201 °C | 
19 | COc1ncccc1Nc1cc2nc3ccccc3n(-c3cccc(F)c3)c-2cc1=NC1CCOCC1 [Compound 9, 5-(3-Fluorophenyl)-3-(4-tetrahydropyranyl)imino-2-(2-methoxy-3-pyridyl)amino-3,5-dihydro-phenazine] | 0.061 µg/mL (≈ 0.123 µM) | 151 | 9.21 µg/mL (≈ 18.6 µM) | 190 to 191 °C | 
20 | COc1ncccc1Nc1cc2nc3ccccc3n(-c3ccc(F)cc3)c-2c/c1=N\C(C)C [TBI-1004, reference compound] | 0.038 µg/mL (≈ 0.0838 µM) |  | > 64 µg/mL |  | 
